Data as given in patent US20240025884A1 (Dong-A ST Co., Ltd., priority 2022, published 2024).

biological target: GCN2 (Homo sapiens (Human), UniProt Q9P2K8); experiment: GCN2 Biochemical Assay (TR-FRET, GFP-eIF2S1 substrate phosphorylation); details: read-out: IC50 (GCN2 Inhibitory Activity)
Outline: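 In-house GCN2 (1.6 nM 2× stock) phosphorylates GFP-eIF2S1 (50 nM 2× stock) with ATP (0.2 mM 2× stock) and tRNA, pH 7.5, 70 min at room temperature; 10-point 3.16-fold compound series. TR-FRET detection with Tb-anti-phospho antibody, 2–3 h, Ex 340/Em 490/520 nm; artifact plate spiked with phospho-substrate.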

Sequence of GCN2 (Q9P2K8 whole entry): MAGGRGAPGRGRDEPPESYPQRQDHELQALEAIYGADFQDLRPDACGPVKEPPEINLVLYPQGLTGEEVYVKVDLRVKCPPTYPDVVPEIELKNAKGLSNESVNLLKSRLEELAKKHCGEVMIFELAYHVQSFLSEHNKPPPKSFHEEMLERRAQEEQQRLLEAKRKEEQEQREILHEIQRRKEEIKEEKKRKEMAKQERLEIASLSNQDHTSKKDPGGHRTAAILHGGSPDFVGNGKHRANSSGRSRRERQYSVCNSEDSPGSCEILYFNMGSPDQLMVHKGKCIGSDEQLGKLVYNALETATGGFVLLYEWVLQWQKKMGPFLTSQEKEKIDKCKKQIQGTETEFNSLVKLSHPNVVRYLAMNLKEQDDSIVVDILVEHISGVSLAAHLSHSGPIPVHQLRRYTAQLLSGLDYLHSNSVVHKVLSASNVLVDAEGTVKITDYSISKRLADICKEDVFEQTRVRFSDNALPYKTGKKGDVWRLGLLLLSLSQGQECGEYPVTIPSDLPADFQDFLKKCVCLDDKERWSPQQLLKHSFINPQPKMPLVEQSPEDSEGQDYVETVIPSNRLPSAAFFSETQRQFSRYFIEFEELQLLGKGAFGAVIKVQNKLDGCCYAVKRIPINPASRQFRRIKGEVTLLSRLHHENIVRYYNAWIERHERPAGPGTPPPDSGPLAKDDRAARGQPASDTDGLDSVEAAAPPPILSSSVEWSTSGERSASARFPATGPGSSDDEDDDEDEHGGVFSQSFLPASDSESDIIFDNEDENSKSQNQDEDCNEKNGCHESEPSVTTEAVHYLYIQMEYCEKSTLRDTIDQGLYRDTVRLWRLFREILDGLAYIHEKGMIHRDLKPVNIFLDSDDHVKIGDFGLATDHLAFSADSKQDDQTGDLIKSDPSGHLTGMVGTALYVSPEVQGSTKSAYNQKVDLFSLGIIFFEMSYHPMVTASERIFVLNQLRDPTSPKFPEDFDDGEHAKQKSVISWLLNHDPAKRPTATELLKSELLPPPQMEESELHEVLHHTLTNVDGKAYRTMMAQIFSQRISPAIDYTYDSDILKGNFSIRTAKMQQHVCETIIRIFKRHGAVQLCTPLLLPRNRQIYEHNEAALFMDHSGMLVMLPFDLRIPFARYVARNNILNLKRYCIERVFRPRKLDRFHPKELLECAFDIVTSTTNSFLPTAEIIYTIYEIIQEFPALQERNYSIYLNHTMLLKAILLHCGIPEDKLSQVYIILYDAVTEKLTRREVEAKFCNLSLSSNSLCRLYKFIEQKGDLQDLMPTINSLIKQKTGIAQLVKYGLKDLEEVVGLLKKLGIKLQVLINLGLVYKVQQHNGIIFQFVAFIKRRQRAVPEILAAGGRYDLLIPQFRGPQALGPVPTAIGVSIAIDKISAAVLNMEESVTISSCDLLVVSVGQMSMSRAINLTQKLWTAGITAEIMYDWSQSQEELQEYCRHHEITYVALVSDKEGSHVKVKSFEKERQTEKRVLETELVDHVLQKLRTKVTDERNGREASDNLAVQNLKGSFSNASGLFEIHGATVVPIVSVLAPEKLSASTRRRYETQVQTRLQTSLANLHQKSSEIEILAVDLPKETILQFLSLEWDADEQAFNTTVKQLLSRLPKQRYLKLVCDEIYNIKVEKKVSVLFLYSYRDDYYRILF

SMILES	IC50 [nM]
Cc1cc(-c2ccc(F)c3c2CN(c2cccc4c(-c5nc(Nc6cc(C)n(C)n6)ncc5C)c[nH]c24)C3=O)cc(C)n1 [Example 488, 2-(3-(2-((1,5-dimethyl-1H-pyrazol-3-yl)amino)-5-methylpyrimidin-4-yl)-1H-indol-7-yl)-4-(2,6-dimethylpyridin-4-yl)-7-fluoroisoindolin-1-one]	< 10
Cc1cnc(Nc2cc(C)n(C)n2)nc1-c1c[nH]c2c(N3Cc4c(-c5ccncc5)ccc([N+](=O)[O-])c4C3=O)cccc12 [Example 489, 2-(3-(2-((1,5-dimethyl-1H-pyrazol-3-yl)amino)-5-methylpyrimidin-4-yl)-1H-indol-7-yl)-7-nitro-4-(pyridin-4-yl)isoindolin-1-one]	< 10
Cc1cnc(Nc2cc(C)n(C)n2)nc1-c1c[nH]c2c(N3Cc4c(-c5ccncc5)ccc(N(C)C)c4C3=O)cccc12 [Example 490, 2-(3-(2-((1,5-dimethyl-1H-pyrazol-3-yl)amino)-5-methylpyrimidin-4-yl)-1H-indol-7-yl)-7-(dimethylamino)-4-(pyridin-4-yl)isoindolin-1-one]	10 to 100
CNc1ccc(-c2ccncc2)c2c1C(=O)N(c1cccc3c(-c4nc(Nc5cc(C)n(C)n5)ncc4C)c[nH]c13)C2 [Example 491, 2-(3-(2-((1,5-dimethyl-1H-pyrazol-3-yl)amino)-5-methylpyrimidin-4-yl)-1H-indol-7-yl)-7-(methylamino)-4-(pyridin-4-yl)isoindolin-1-one]	100 to 1000
Cc1cnc(Nc2cc(C)n(C)n2)nc1-c1c[nH]c2c(N3Cc4c(-c5ccccc5)ccc(I)c4C3=O)cccc12 [Example 492, 2-(3-(2-((1,5-dimethyl-1H-pyrazol-3-yl)amino)-5-methylpyrimidin-4-yl)-1H-indol-7-yl)-7-iodo-4-phenylisoindolin-1-one]	100 to 1000
Cc1cnc(Nc2cc(C)n(C)n2)nc1-c1c[nH]c2c(N3Cc4c(-c5ccccc5)ccnc4C3=O)cccc12 [Example 493, 6-(3-(2-((1,5-dimethyl-1H-pyrazol-3-yl)amino)-5-methylpyrimidin-4-yl)-1H-indol-7-yl)-4-phenyl-5,6-dihydro-7H-pyrrolo[3,4-b]pyridin-7-one]	< 10
Cc1cnc(Nc2cc(C)n(C)n2)nc1-c1c[nH]c2c(N3Cc4c(-c5ccncc5)ccnc4C3=O)cccc12 [Example 494, 6-(3-(2-((1,5-dimethyl-1H-pyrazol-3-yl)amino)-5-methylpyrimidin-4-yl)-1H-indol-7-yl)-4-(pyridin-4-yl)-5,6-dihydro-7H-pyrrolo[3,4-b]pyridin-7-one]	< 10
Cc1cnc(Nc2cc(C)n(C)n2)nc1-c1c[nH]c2c(N3Cc4c(-c5cccnc5)ccnc4C3=O)cccc12 [Example 495, 6-(3-(2-((1,5-dimethyl-1H-pyrazol-3-yl)amino)-5-methylpyrimidin-4-yl)-1H-indol-7-yl)-4-(pyridin-3-yl)-5,6-dihydro-7H-pyrrolo[3,4-b]pyridin-7-one]	< 10
Cc1cnc(Nc2cc(C)n(C)n2)nc1-c1c[nH]c2c(N3Cc4c(C5=CCNCC5)ccnc4C3=O)cccc12 [Example 496, 6-(3-(2-((1,5-dimethyl-1H-pyrazol-3-yl)amino)-5-methylpyrimidin-4-yl)-1H-indol-7-yl)-4-(1,2,3,6-tetrahydropyridin-4-yl)-5,6-dihydro-7H-pyrrolo[3,4-b]pyridin-7-one]	< 10
Cc1cnc(Nc2cc(C)n(C)n2)nc1-c1c[nH]c2c(N3Cc4cc(-c5ccncc5)cnc4C3=O)cccc12 [Example 497, 6-(3-(2-((1,5-dimethyl-1H-pyrazol-3-yl)amino)-5-methylpyrimidin-4-yl)-1H-indol-7-yl)-3-(pyridin-4-yl)-5,6-dihydro-7H-pyrrolo[3,4-b]pyridin-7-one]	< 10
Cc1cnc(Nc2cc(C)n(C)n2)nc1-c1c[nH]c2c(N3Cc4cc(C5=CCNCC5)cnc4C3=O)cccc12 [Example 498, 6-(3-(2-((1,5-dimethyl-1H-pyrazol-3-yl)amino)-5-methylpyrimidin-4-yl)-1H-indol-7-yl)-3-(1,2,3,6-tetrahydropyridin-4-yl)-5,6-dihydro-7H-pyrrolo[3,4-b]pyridin-7-one]	< 10
Cc1cnc(Nc2cc(C)n(C)n2)nc1-c1c[nH]c2c(N3Cc4c(cncc4C4=CCNCC4)C3=O)cccc12 [Example 499, 2-(3-(2-((1,5-dimethyl-1H-pyrazol-3-yl)amino)-5-methylpyrimidin-4-yl)-1H-indol-7-yl)-7-(1,2,3,6-tetrahydropyridin-4-yl)-1,2-dihydro-3H-pyrrolo[3,4-c]pyridin-3-one]	< 10
Cc1cnc(Nc2cc(C)n(C)n2)nc1-c1c[nH]c2c(N3Cc4c(cncc4-c4ccncc4)C3=O)cccc12 [Example 500, 2-(3-(2-((1,5-dimethyl-1H-pyrazol-3-yl)amino)-5-methylpyrimidin-4-yl)-1H-indol-7-yl)-7-(pyridin-4-yl)-1,2-dihydro-3H-pyrrolo[3,4-c]pyridin-3-one]	< 10
Cc1cnc(Nc2cc(C)n(C)n2)nc1-c1c[nH]c2c(N3Cc4c(ccnc4-c4ccncc4)C3=O)cccc12 [Example 501, 2-(3-(2-((1,5-dimethyl-1H-pyrazol-3-yl)amino)-5-methylpyrimidin-4-yl)-1H-indol-7-yl)-4-(pyridin-4-yl)-2,3-dihydro-1H-pyrrolo[3,4-c]pyridin-1-one]	< 10

Next, values leading:

IC50 [nM]	SMILES
< 10	Cc1cnc(Nc2cc(C)n(C)n2)nc1-c1c[nH]c2c(N3Cc4c(cccc4-c4ccnc(N(C)C)c4)C3=O)cccc12 [Example 475, 2-(3-(2-((1,5-dimethyl-1H-pyrazol-3-yl)amino)-5-methylpyrimidin-4-yl)-1H-indol-7-yl)-4-(2-(dimethylamino)pyridin-4-yl)isoindolin-1-one]
< 10	CNc1cc(-c2cccc3c2CN(c2cccc4c(-c5nc(Nc6cc(C)n(C)n6)ncc5C)c[nH]c24)C3=O)ccn1 [Example 476, 2-(3-(2-((1,5-dimethyl-1H-pyrazol-3-yl)amino)-5-methylpyrimidin-4-yl)-1H-indol-7-yl)-4-(2-(methylamino)pyridin-4-yl)isoindolin-1-one]
< 10	Cc1cncc(-c2cccc3c2CN(c2cccc4c(-c5nc(Nc6cc(C)n(C)n6)ncc5C)c[nH]c24)C3=O)c1 [Example 477, 2-(3-(2-((1,5-dimethyl-1H-pyrazol-3-yl)amino)-5-methylpyrimidin-4-yl)-1H-indol-7-yl)-4-(5-methylpyridin-3-yl)isoindolin-1-one]
< 10	Cc1cnc(Nc2cc(C)n(C)n2)nc1-c1c[nH]c2c(N3Cc4c(cccc4-c4cncc(F)c4)C3=O)cccc12 [Example 478, 2-(3-(2-((1,5-dimethyl-1H-pyrazol-3-yl)amino)-5-methylpyrimidin-4-yl)-1H-indol-7-yl)-4-(5-fluoropyridin-3-yl)isoindolin-1-one]
< 10	Cc1cc(-c2cccc3c2CN(c2cccc4c(-c5nc(Nc6cc(C)n(C)n6)ncc5C)c[nH]c24)C3=O)cc(C)n1 [Example 479, 2-(3-(2-((1,5-dimethyl-1H-pyrazol-3-yl)amino)-5-methylpyrimidin-4-yl)-1H-indol-7-yl)-4-(2,6-dimethylpyridin-4-yl)isoindolin-1-one]
< 10	Cc1cnc(Nc2cc(C)n(C)n2)nc1-c1c[nH]c2c(N3Cc4c(-c5ccncc5)ccc(F)c4C3=O)cccc12 [Example 480, 2-(3-(2-((1,5-dimethyl-1H-pyrazol-3-yl)amino)-5-methylpyrimidin-4-yl)-1H-indol-7-yl)-7-fluoro-4-(pyridin-4-yl)isoindolin-1-one]
< 10	COc1cc(-c2ccc(F)c3c2CN(c2cccc4c(-c5nc(Nc6cc(C)n(C)n6)ncc5C)c[nH]c24)C3=O)ccn1 [Example 481, 2-(3-(2-((1,5-dimethyl-1H-pyrazol-3-yl)amino)-5-methylpyrimidin-4-yl)-1H-indol-7-yl)-7-fluoro-4-(2-methoxypyridin-4-yl)isoindolin-1-one]
< 10	CNc1cc(-c2ccc(F)c3c2CN(c2cccc4c(-c5nc(Nc6cc(C)n(C)n6)ncc5C)c[nH]c24)C3=O)ccn1 [Example 482, 2-(3-(2-((1,5-dimethyl-1H-pyrazol-3-yl)amino)-5-methylpyrimidin-4-yl)-1H-indol-7-yl)-7-fluoro-4-(2-(methylamino)pyridin-4-yl)isoindolin-1-one]
< 10	Cc1cnc(Nc2cc(C)n(C)n2)nc1-c1c[nH]c2c(N3Cc4c(-c5ccnc(N(C)C)c5)ccc(F)c4C3=O)cccc12 [Example 483, 2-(3-(2-((1,5-dimethyl-1H-pyrazol-3-yl)amino)-5-methylpyrimidin-4-yl)-1H-indol-7-yl)-4-(2-(dimethylamino)pyridin-4-yl)-7-fluoroisoindolin-1-one]
< 10	Cc1cnc(Nc2cc(C)n(C)n2)nc1-c1c[nH]c2c(N3Cc4c(-c5cncc(F)c5)ccc(F)c4C3=O)cccc12 [Example 484, 2-(3-(2-((1,5-dimethyl-1H-pyrazol-3-yl)amino)-5-methylpyrimidin-4-yl)-1H-indol-7-yl)-7-fluoro-4-(5-fluoropyridin-3-yl)isoindolin-1-one]
< 10	Cc1cnc(Nc2cc(C)n(C)n2)nc1-c1c[nH]c2c(N3Cc4c(-c5ccnc(F)c5)ccc(F)c4C3=O)cccc12 [Example 485, 2-(3-(2-((1,5-dimethyl-1H-pyrazol-3-yl)amino)-5-methylpyrimidin-4-yl)-1H-indol-7-yl)-7-fluoro-4-(2-fluoropyridin-4-yl)isoindolin-1-one]
< 10	Cc1cncc(-c2ccc(F)c3c2CN(c2cccc4c(-c5nc(Nc6cc(C)n(C)n6)ncc5C)c[nH]c24)C3=O)c1 [Example 486, 2-(3-(2-((1,5-dimethyl-1H-pyrazol-3-yl)amino)-5-methylpyrimidin-4-yl)-1H-indol-7-yl)-7-fluoro-4-(5-methylpyridin-3-yl)isoindolin-1-one]
< 10	Cc1cnccc1-c1ccc(F)c2c1CN(c1cccc3c(-c4nc(Nc5cc(C)n(C)n5)ncc4C)c[nH]c13)C2=O [Example 487, 2-(3-(2-((1,5-dimethyl-1H-pyrazol-3-yl)amino)-5-methylpyrimidin-4-yl)-1H-indol-7-yl)-7-fluoro-4-(3-methylpyridin-4-yl)isoindolin-1-one]
